Article PMC4686662 (Nature Communications, 2015)
In brackets after ≈: the same amount, converted by molar mass. Read-outs that look alike come from different tables or passages of the source.

Key:
[1] = biological target: T1, E. coli Topo IV (Escherichia coli, UniProt P0AFI2+P20083); experiment: E. coli topo IV decatenation inhibition assay; assay type: biochemical
T1 construct: purchased Inspiralis
Description: (§1) In vitro topoisomerase activity assays were performed as described with minor modifications. […] For E. coli DNA gyrase supercoiling assays, 3.4 nM of wild-type E. coli DNA gyrase (Inspiralis) was incubated with 500 ng relaxed pBR322 plasmid DNA in a 30-μl reaction containing the same buffer mixture but without the potassium glutamate. For S. aureus topo IV decatenation assays, 4 nM of S. aureus topo IV was incubated with 200 ng kinetoplast DNA in buffer as described by the manufacturer (Inspiralis). In E. coli topo IV decatenation assay, 0.125 nM of E. coli topo IV was incubated with kDNA as described in the protocol (Inspiralis). Human Top2α relaxation assays were performed as reported using 2 nM of enzyme. […] Reactions were analysed by electrophoresis in 1% w/v agarose gels followed by ethidium bromide staining. IC50 values, defined as the amount of compound that causes half-maximal inhibition, were determined by quantifying the DNA products using densitometry (VisionWorks, UVP) and fitting the data by nonlinear regression with GraFit software (Erythacus). Compound IC50 values reported are the averages of two to three determinations.

[2] = biological target: T2, S. aureus DNA gyrase (Staphylococcus aureus, UniProt P0A0K8+P20831); experiment: S. aureus DNA gyrase supercoiling inhibition assay; assay type: biochemical
T2 construct: Full-length S. aureus GyrA and GyrB were expressed in E. coli and purified as described; made in house; host or cells: E. coli
Description: as §1

[3] = test system: S. aureus; experiment: MIC, broth microdilution, S. aureus strains; assay type: cell-based; conditions: Staphylococcus aureus
Description: (§2) Antibacterial minimum inhibitory concentrations (MICs) were determined from two independent experiments using broth microdilution methods according to Clinical and Laboratory Standards Institute guidelines. […] Bacterial strains used were from GSK's culture collection.
(§3) The quinolone resistance-determining region (QRDR) or full-length of gyrA/B and parC/E were amplified by PCR from the resistant mutants and DNA sequenced using the following primer pairs (all 5′–3′ sequence): for S. aureus gyrA: […] and […]; gyrB […] and […]; parC […] and […], and parE […] and […], respectively. For S. pneumoniae gyrA: […] and […]; gyrB: […] and […]; parC: […] and […], and parE: […] and […], respectively. […] Mutations in etoposide-resistant transformants were confirmed by PCR and DNA analysis.

[4] = biological target: T3, E. coli DNA gyrase (Escherichia coli, UniProt P0AES4+P0AES6); experiment: E. coli DNA gyrase supercoiling inhibition assay; assay type: biochemical; set-up: E. coli full-length DNA gyrase subunits A and B (both N-terminally 6-His-tagged) produced in-house; 6-His (N); made in house
Description: as §1

[5] = test system: S. pneumoniae; experiment: MIC, broth microdilution, S. pneumoniae strains; assay type: cell-based; conditions: Streptococcus pneumoniae
Description: as §2, §3

[6] = biological target: T4, S. aureus Topo IV (Staphylococcus aureus, UniProt P0C1S7+P0C1U9); experiment: S. aureus topo IV decatenation inhibition assay; assay type: biochemical
T4 construct: purchased Inspiralis
Description: as §1

[7] = test system: E. coli; experiment: MIC, broth microdilution, E. coli strains; assay type: cell-based, Escherichia coli
Description: as §2

[8] = biological target: T2, S. aureus DNA gyrase; experiment: biochemical; assay type: biochemical; conditions: for Type of DNA breaks stabilized with S. aureus DNA gyrase: each compound 100 μM, supercoiled pBR322, full-length S. aureus gyrase
Description: (§4) BlueJuice gel loading buffer (Invitrogen) was added. […] See Supplementary Fig. 15 for representative gels.

[9] = test system: human Top2β; set-up: method as in PMID 26149691; conditions: cited from earlier work
[10] = biological target: T5, Human Top2α (Homo sapiens, UniProt P11388); experiment: DNA cleavage assay with human Top2α
Description: as §4

[11] = biological target: T5, Human Top2α; experiment: Human Top2α relaxation inhibition assay; assay type: biochemical
[12] = test system: Klebsiella pneumoniae; experiment: MIC, broth microdilution, K. pneumoniae strains; assay type: cell-based; set-up: unit not given here; conditions: Klebsiella pneumoniae 1161486 tolC
Description: as §2

[13] = test system: Acinetobacter baumannii; experiment: MIC, broth microdilution, A. baumannii strains; assay type: cell-based; set-up: unit not given here; conditions: A. baumannii ACM1015 adeABC adeIJK (footnote c)
Description: as §2

[14] = biological target: T1, E. coli Topo IV; conditions: read-out: IC50, E. coli Topo IV decatanation; supplementary ref 3; cited from earlier work
[15] = test system: Haemophilus influenzae; experiment: MIC, broth microdilution, H. influenzae strains; assay type: cell-based; set-up: unit not given here
Description: as §2

[16] = biological target: T3, E. coli DNA gyrase; conditions: concentrations showing similar intensities of DSB
[17] = biological target: T4, S. aureus Topo IV; set-up: method as in earlier work; conditions: read-out: IC50, S. aureus Topo IV decatanation; supplementary ref 4; cited from earlier work
[18] = S. aureus RN4220 (parent), read-out: MIC
[19] = S. aureus RN4220 GyrB ΔT403-K406, read-out: MIC
[20] = S. pneumoniae 1629, read-out: MIC
[21] = S. pneumoniae 1629 GyrB ΔL407–S410, read-out: MIC
[22] = Escherichia coli, E. coli 7623, read-out: MIC
[23] = Escherichia coli, E. coli 7623 ΔtolC

Row | SMILES | MIC [3, 18] [µg/mL] | MIC ([3]; S. aureus RN4220 GyrB D437A) [µg/mL] | MIC ([3]; S. aureus RN4220 GyrB D437N) [µg/mL] | MIC ([3]; S. aureus RN4220 GyrB D437V) [µg/mL] | MIC ([3]; S. aureus RN4220 GyrB P456L) [µg/mL] | MIC [3, 19] [µg/mL] | further results
1 | COc1cc([C@@H]2c3cc4c(cc3[C@@H](O[C@@H]3O[C@@H]5CO[C@@H](C)O[C@H]5[C@H](O)[C@H]3O)[C@H]3COC(=O)[C@H]23)OCO4)cc(OC)c1O [Etoposide, etoposide] | 64 (≈ 109 µM) | 256 (≈ 435 µM) | 128 (≈ 217 µM) | 256 (≈ 435 µM) | 256 (≈ 435 µM) | 256 (≈ 435 µM) | Plateau of fitted IC50 curve, % of maximal inhibition ([1]; E. coli Topo IV decatenation): ~75%; IC50 ([1]; read-out: IC50, E. coli Topo IV decatanation): 107 µM; IC50 [2]: 48 µM; Plateau of fitted IC50 curve, % of maximal inhibition ([2]; S. aureus DNA gyrase supercoiling): ~75%; IC50 [4]: 134 µM; Plateau of fitted IC50 curve, % of maximal inhibition ([4]; E. coli DNA gyrase supercoiling): approx. 60%; MIC [5, 20]: 2 µg/mL (≈ 3.4 µM); MIC ([5]; S. pneumoniae 1629 GyrB R447C): 16 µg/mL (≈ 27.2 µM); MIC [5, 21]: 16 µg/mL (≈ 27.2 µM); IC50 [6]: 246 µM; Plateau of fitted IC50 curve, % of maximal inhibition [6]: ~50%; MIC [7, 22]: > 256 µg/mL; MIC [7, 23]: 0.75 µg/mL (≈ 1.27 µM); EC50 [8]: 107 µM; Type of DNA breaks stabilized with S. aureus DNA gyrase [8]: both SSB and DSB
2 | O=C1c2c(O)ccc(O)c2C(=O)c2c(NCCNCCO)ccc(NCCNCCO)c21 [Mitoxantrone, mitoxantrone] | 32 (≈ 72 µM) | 8 (≈ 18 µM) | 32 (≈ 72 µM) | 8 (≈ 18 µM) | 4 (≈ 9 µM) | 6 (≈ 13.5 µM) | –
3 | COc1cccc2c1C(=O)c1c(O)c3c(c(O)c1C2=O)C[C@@](O)(C(C)=O)C[C@@H]3O[C@H]1C[C@H](N)[C@H](O)[C@H](C)O1 [Daunorubicin, daunorubicin] | 8 (≈ 15.2 µM) | 8 (≈ 15.2 µM) | 8 (≈ 15.2 µM) | 8 (≈ 15.2 µM) | 4 (≈ 7.58 µM) | 1.5 (≈ 2.84 µM) | –
4 | C[C@@H]1CN2c3c(cc4c(N5C(=O)OC[C@@H]5C)noc4c3F)CC3(C(=O)NC(=O)NC3=O)[C@H]2[C@H](C)O1 [AZD9014] | – | – | – | – | – | – | Activity against human Top2β [9]: low activity
5 | C[C@@H]1CN2c3ccc([N+](=O)[O-])cc3CC3(C(=O)NC(=O)NC3=O)[C@H]2[C@H](C)O1 [QPT-1, quinoline pyrimidine trione-1] | 0.5 (≈ 1.34 µM) | 2 (≈ 5.34 µM) | 4 (≈ 10.7 µM) | – | – | – | Activity against human Top2α [10]: does not have detectable activity; EC50 [10]: > 800 µM; IC50 [11]: > 500 µM; MIC [12]: 0.125; MIC [13]: 0.125; IC50 [4]: 0.65 µM; IC50 [14]: 30 µM; MIC ([15]; Haemophilus influenzae H128): ≤ 0.125; MIC ([15]; Haemophilus influenzae H128 acrB): ≤ 0.125; DNA cleavage activity relative to the (+) enantiomer (more active) [16]: ~ 30 fold; MIC ([7]; Escherichia coli 7623 tolC): 0.063 µg/mL (≈ 0.168 µM); MIC [7, 22]: 8 µg/mL (≈ 21.4 µM); MIC [7, 23]: 0.063 µg/mL (≈ 0.168 µM); EC50 [8]: 8.8 µM; Type of DNA breaks stabilized with S. aureus DNA gyrase [8]: DSB
6 | COc1cccc2c1C(=O)c1c(O)c3c(c(O)c1C2=O)C[C@@](O)(C(=O)CO)C[C@@H]3O[C@H]1C[C@H](N)[C@H](O)[C@H](C)O1 [Doxorubicin, doxorubicin] | 8 (≈ 14.7 µM) | 8 (≈ 14.7 µM) | 8 (≈ 14.7 µM) | 8 (≈ 14.7 µM) | 4 (≈ 7.36 µM) | 3 (≈ 5.52 µM) | –
7 | Cc1c2ccncc2c(C)c2c1[nH]c1ccccc12 [Ellipticine, ellipticine] | 1 (≈ 4.06 µM) | 1 (≈ 4.06 µM) | 1 (≈ 4.06 µM) | 1 (≈ 4.06 µM) | 1 (≈ 4.06 µM) | 1 (≈ 4.06 µM) | –
8 | COc1cc([C@@H]2c3cc4c(cc3[C@@H](O[C@@H]3O[C@@H]5CO[C@@H](c6cccs6)O[C@H]5[C@H](O)[C@H]3O)[C@H]3COC(=O)[C@H]23)OCO4)cc(OC)c1O [Teniposide, teniposide] | 16 (≈ 24.4 µM) | 32 (≈ 48.7 µM) | 32 (≈ 48.7 µM) | 64 (≈ 97.5 µM) | 32 (≈ 48.7 µM) | 32 (≈ 48.7 µM) | –
9 | COc1ccc2ncc(C#N)c(CCN3CCC(NCc4cc5c(cn4)OCS5)CC3)c2c1 [GSK299423] | 0.016 (≈ 0.0347 µM) | 0.125 (≈ 0.271 µM) | 0.125 (≈ 0.271 µM) | 0.125 (≈ 0.271 µM) | 0.125 (≈ 0.271 µM) | 0.016 (≈ 0.0347 µM) | –
10 | COc1c(N2C[C@@H]3CCCN[C@@H]3C2)c(F)cc2c(=O)c(C(=O)O)cn(C3CC3)c12 [Moxifloxacin, moxifloxacin] | 0.063 (≈ 0.157 µM) | 0.063 (≈ 0.157 µM) | 0.063 (≈ 0.157 µM) | – | – | – | IC50 [17]: 3.8 µM; MIC [5, 20]: 0.031 µg/mL (≈ 0.0772 µM); MIC ([5]; S. pneumoniae 1629 GyrB R447C): 0.094 µg/mL (≈ 0.234 µM); MIC [5, 21]: 0.047 µg/mL (≈ 0.117 µM); MIC [7, 22]: ≤ 0.016 µg/mL; MIC [7, 23]: ≤ 0.016 µg/mL; Type of DNA breaks stabilized with S. aureus DNA gyrase [8]: DSB
11 | COc1cc(NS(C)(=O)=O)ccc1Nc1c2ccccc2nc2ccccc12 [Amsacrine, amsacrine] | > 128 | 32 (≈ 81.3 µM) | > 128 | 64 (≈ 163 µM) | 32 (≈ 81.3 µM) | 128 (≈ 325 µM) | –
